Reference: paper PMC2818873 (Bioorganic & medicinal chemistry, 2009)

How the values were obtained:
[1] = system: folyl poly-γ-glutamate synthetase (FPGS); conditions: cited from earlier work
P. carinii DHFR = molecular target: T1, P. carinii DHFR (Pneumocystis carinii, UniProt P16184); format: biochemical; conditions: IC50 rat liver DHFR / IC50 P. carinii DHFR
T1 sequence (P16184 1-206): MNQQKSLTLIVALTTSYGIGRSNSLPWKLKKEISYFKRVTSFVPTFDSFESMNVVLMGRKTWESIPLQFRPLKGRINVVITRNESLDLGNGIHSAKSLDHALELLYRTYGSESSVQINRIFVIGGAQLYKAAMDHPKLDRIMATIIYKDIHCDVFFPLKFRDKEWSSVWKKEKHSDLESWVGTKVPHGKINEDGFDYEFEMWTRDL

Row | Structure (SMILES) | FPGS substrate activity [1] | Selectivity ratio rl/pc (P. carinii DHFR)
1 | Cc1c(Sc2ccc(C(=O)N[C@@H](CCC(=O)O)C(=O)O)cc2)[nH]c2nc(N)nc(N)c12 [Compound 4] | reasonable FPGS substrate activity | –
2 | Cc1c(Sc2cccc3ccccc23)oc2nc(N)nc(N)c12 [Compound 6, 2,4-Diamino-5-methyl-6-(1-naphthylthio)furo[2,3-d]pyrimidine] | – | >10
